Reference: patent EP2799533A1, “Protease and inhibitor containing water-soluble films” (Novozymes A/S, priority 2013, dated 2014)

Experiments:
Format in all cases: biochemical
Mannaway = test: Residual enzymatic activity of mannanase in water-soluble film after film production; conditions: Mannanase (Mannaway, 0.03% wt) in film with Savinase protease; 0.5% wt 4-FPBA; vs. amount of enzyme added; average of three analyses; film without 4-FPBA: 1%
Protocol: (§1) We prepared two different enzyme containing water-soluble films, as outlined in Table 1 below. The films were produced under normal film production conditions. Later, the films were analyzed to estimate the enzymatic activity remaining after the production process, i.e., the percentage of residual enzymatic activity in the final film product, as compared to the amount of enzyme added in the production process.
The mannanase used was Mannaway (Novozymes A/S, Denmark), which was added to obtain a final concentration of 0.03% wt active enzyme protein in both of the films.
(§2) The protease inhibitor used was 4-formyl-phenyl-boronic acid (4-FPBA), which was added to obtain a final concentration of 0.5% wt in one of the water-soluble films.
(§3) Since the humidity of the samples was not controlled, some of the absolute values from the analysis are above 100%. However, all film samples were treated identically and analyzed at the same time, and therefore the relative improvement by using the protease inhibitor can be calculated. Table 1. The data are based on an average of three analyses of each film.

Stainzyme = test: Residual enzymatic activity of amylase in water-soluble film after film production
Protocol: as §1
The amylase used was Stainzyme (Novozymes A/S, Denmark), which was added to obtain a final concentration of 0.1 % wt active enzyme protein in both of the films.
as §2, §3

Savinase = target: T1, Savinase (Lederbergia lenta, UniProt P29600); test: Residual enzymatic activity of protease in water-soluble film after film production
T1 construct: purchased Novozymes A/S, Denmark
T1 sequence (P29600 1-269): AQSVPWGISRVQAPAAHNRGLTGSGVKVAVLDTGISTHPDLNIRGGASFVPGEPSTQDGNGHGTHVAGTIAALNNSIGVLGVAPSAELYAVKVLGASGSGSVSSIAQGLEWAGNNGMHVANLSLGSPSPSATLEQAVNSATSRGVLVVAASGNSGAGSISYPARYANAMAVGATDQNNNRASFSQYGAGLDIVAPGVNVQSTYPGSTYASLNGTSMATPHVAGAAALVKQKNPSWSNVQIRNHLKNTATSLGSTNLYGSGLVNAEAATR
Protocol: as §1
The protease used for preparing the films was Savinase (Novozymes A/S, Denmark), which was added to obtain a final concentration of 1.1 % wt active enzyme protein in both of the water-soluble films.
as §2, §3

For O=Cc1ccc(B(O)O)cc1 [4-FPBA, 4-formyl-phenyl-boronic acid], the “Residual activity in film made with 4-FPBA” value (from here on “Residual activity”) (Mannaway) was 63%, the “Residual activity” value (Stainzyme; Amylase (Stainzyme, 0.1 % wt) in film with Savinase protease, 0.5% wt 4-FPBA, vs. amount of enzyme added, average of three analyses, humidity not controlled, values above 100%, film without 4-FPBA: 106%) was 114% and the “Relative improvement by using inhibitor” value (Stainzyme; Amylase, film with 0.5% wt 4-FPBA vs. film without 4-FPBA) was 8%. For the same compound, the “Residual activity” value (Savinase; Protease (Savinase, 1.1 % wt) in film also holding amylase and mannanase, 0.5% wt 4-FPBA, vs. amount of enzyme added, average of three analyses, film without 4-FPBA: 87%) was 93% and the “Relative improvement by using inhibitor” value (Savinase; Protease, film with 0.5% wt 4-FPBA vs. film without 4-FPBA) was 7%.
